How the values were obtained:
tankyrase 1 (TNKS1) = biological target: T1, tankyrase 1 (TNKS1) (Homo sapiens, UniProt O95271); assay: Tankyrase inhibitory activity test (ELISA, auto-poly(ADP-ribosyl)ation), tankyrase 1; format: biochemical; conditions: Flag tagged tankyrase 1 (1,024-1,327aa, SAM+PARP); read-out: TNKS1 (inhibitory activity against tankyrase 1, IC50)
T1 construct: tankyrase 1 (1,024-1,327aa, SAM+PARP); made in house; host or cells: cell-free protein expression system
How it was run: (§1)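 Cell-free-expressed Flag-tagged TNKS1 (1,024-1,327aa, SAM+PARP) or TNKS2 (613-1,116aa, ANK5+SAM+PARP) was captured on anti-FLAG plates and pre-incubated 10 min at RT with compound (pH 8.0, MgCl2, DTT). Auto-PARylation was started with NAD solution (225 μM NAD, 25 μM biotin-NAD), 45 min at 30 °C. Detection by HRP-streptavidin chemiluminescence; IC50 from residual activity.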

tankyrase 2 (TNKS2) = biological target: T2, tankyrase 2 (TNKS2) (Homo sapiens, UniProt Q9H2K2); assay: Tankyrase inhibitory activity test (ELISA, auto-poly(ADP-ribosyl)ation), tankyrase 2; format: biochemical; conditions: Flag tagged tankyrase 2 (613-1,116aa, ANK5+SAM+PARP); read-out: TNKS2 (inhibitory activity against tankyrase 2, IC50)
T2 construct: tankyrase 2 (613-1,116aa, ANK5+SAM+PARP); made in house; host or cells: cell-free protein expression system
How it was run: as §1

[1] = test system: human colorectal cancer cell line COLO-320DM; assay: Cell proliferation inhibitory activity test (Celltiter-Glo); format: cell-based; conditions: COLO-320DM cells, 96 hours

T1 sequence (O95271 1024-1327): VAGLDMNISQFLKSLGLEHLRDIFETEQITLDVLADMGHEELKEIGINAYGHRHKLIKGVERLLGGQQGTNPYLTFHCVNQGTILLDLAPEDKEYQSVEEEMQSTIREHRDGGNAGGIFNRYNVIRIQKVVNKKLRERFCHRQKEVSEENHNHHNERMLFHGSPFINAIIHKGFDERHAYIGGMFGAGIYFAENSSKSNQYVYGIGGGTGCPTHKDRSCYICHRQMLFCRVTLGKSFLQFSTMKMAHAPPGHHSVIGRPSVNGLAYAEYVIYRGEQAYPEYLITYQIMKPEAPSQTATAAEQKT

SMILES	IC50 (tankyrase 1 (TNKS1))	IC50 (tankyrase 2 (TNKS2))	GI50 [1]
CCOc1ccc(-c2n[nH]nc2C2NC(=O)c3cccc(CC)c3N2)cc1 (stereo not drawn) [Example 80, 2-[5-(4-Ethoxyphenyl)-2H-1,2,3-triazol-4-yl]-8-ethyl-2,3-dihydro-1H-quinazolin-4-one]	0.005 to 0.02 µM	0.005 to 0.02 µM	< 1 µM
Cc1cccc2c1NC(c1cn[nH]c1-c1ccc(-c3ccc(N4CCN(C)CC4)cc3)cc1)NC2=O (stereo not drawn) [Example 51, 8-Methyl-2-[5-[4-[4-(4-methylpiperazin-1-yl)phenyl]phenyl]-1H-pyrazol-4-yl]-2,3-dihydro-1H-quinazolin-4-one]	0.02 to 0.05 µM	0.02 to 0.05 µM	1 to 10 µM
CN1c2ccccc2C(=O)NC1c1c[nH]nc1-c1cccc(-c2ccccc2)c1 (stereo not drawn) [Example 22, 1-Methyl-2-[3-(3-phenylphenyl)-1H-pyrazol-4-yl]-2,3-dihydroquinazolin-4-one]	< 0.005 µM	< 0.005 µM	≥ 10 µM
CCOc1ccc(-c2n[nH]cc2C2NC(=O)c3cccc(C)c3N2)cc1 (stereo not drawn) [Example 55, 2-[5-(4-Ethoxyphenyl)-1H-pyrazol-4-yl]-8-methyl-2,3-dihydro-1H-quinazolin-4-one]	0.005 to 0.02 µM	< 0.005 µM	1 to 10 µM
CN1CCN(Cc2ccc(-c3cccc(-c4n[nH]cc4C4NC(=O)c5ccccc5N4C)c3)cc2)CC1 (stereo not drawn) [Example 32]	0.02 to 0.05 µM	0.02 to 0.05 µM	≥ 10 µM
Cc1cccc2c1NC(c1c[nH]nc1-c1ccc(OCC(F)(F)F)cc1)NC2=O (stereo not drawn) [Example 54, 8-Methyl-2-[3-(4-(2,2,2-trifluoroethoxy)phenyl)-1H-pyrazol-4-yl]-2,3-dihydro-1H-quinazolin-4-one]	0.005 to 0.02 µM	< 0.005 µM	1 to 10 µM
CN1c2ccccc2C(=O)NC1c1c[nH]nc1-c1ccc(-c2ccc(N3CCOCC3)cc2)cc1 (stereo not drawn) [Example 29]	0.005 to 0.02 µM	0.005 to 0.02 µM	1 to 10 µM
CN1c2ccccc2C(=O)NC1c1c[nH]nc1-c1ccc(-c2ccnc3ccccc23)cc1 (stereo not drawn) [Example 40, 1-Methyl-2-[3-(4-quinolin-4-ylphenyl)-1H-pyrazol-4-yl]-2,3-dihydroquinazolin-4-one]	0.02 to 0.05 µM	0.02 to 0.05 µM	≥ 10 µM
Cc1cccc2c1NC(c1n[nH]nc1-c1ccc(OC(F)F)cc1)NC2=O (stereo not drawn) [Example 73, 2-[4-[4-(Difluoromethoxy)phenyl]-2H-1,2,3-triazol-5-yl]-8-methyl-2,3-dihydro-1H-quinazolin-4-one]	0.02 to 0.05 µM	0.02 to 0.05 µM	≥ 10 µM

Results, then the compound that gave them:

IC50 (tankyrase 1 (TNKS1))	IC50 (tankyrase 2 (TNKS2))	GI50 [1]	SMILES
< 0.005 µM	0.005 to 0.02 µM	1 to 10 µM	CN1c2ccccc2C(=O)NC1c1c[nH]nc1-c1cccc(F)c1 (stereo not drawn) [Example 28, 2-[3-(3-Fluorophenyl)-1H-pyrazol-4-yl]-1-methyl-2,3-dihydroquinazolin-4-one]
0.02 to 0.05 µM	0.005 to 0.02 µM	1 to 10 µM	CN1c2ccccc2C(=O)NC1c1c[nH]nc1-c1cccc(Cl)c1 (stereo not drawn) [Example 42, 2-[3-(3-Chlorophenyl)-1H-pyrazol-4-yl]-1-methyl-2,3-dihydroquinazolin-4-one]
0.02 to 0.05 µM	0.02 to 0.05 µM	≥ 10 µM	CN1c2ccccc2C(=O)NC1c1c[nH]nc1-c1ccc([N+](=O)[O-])cc1 (stereo not drawn) [Example 16, 1-Methyl-2-[3-(4-nitrophenyl)-1H-pyrazol-4-yl]-2,3-dihydroquinazolin-4-one]
0.005 to 0.02 µM	0.005 to 0.02 µM	≥ 10 µM	COc1ccc(-c2n[nH]cc2C2NC(=O)c3ccc(C)cc3N2C)cc1 (stereo not drawn) [Example 53, 2-[5-(4-Methoxyphenyl)-1H-pyrazol-4-yl]-1,7-dimethyl-2,3-dihydroquinazolin-4-one]
< 0.005 µM	< 0.005 µM	1 to 10 µM	CCOc1ccc(-c2n[nH]cc2C2NC(=O)c3ccccc3N2C)cc1 (stereo not drawn) [Example 46, 2-[5-(4-Ethoxyphenyl)-1H-pyrazol-4-yl]-1-methyl-2,3-dihydroquinazolin-4-one]

Source: patent US11566017B2, “Dihydroquinazolinone compound or pharmacologically acceptable salt, and cell growth inhibitor” (RIKEN, priority 2017, dated 2023)
